Test results from EP0432442A1, “ACAT inhibitors” (priority 1989, dated 1991).
pIC50: −log10 of the molar value.

Tests used:
[1] = target: acyl-CoA: cholesterol acyltransferase (ACAT); assay: in vitro ACAT inhibition: formation of radiolabeled cholesterol oleate from radiolabeled oleic acid in rabbit intestinal microsomes; assay type: biochemical; details: tissue preparation containing rabbit intestinal microsomes
Protocol: The ability of representative compounds of the present invention to inhibit ACAT was measured using an in vitro test more fully described in F. J. Field and R. G. Salone, Biochemica et Biophysica 712:557-570 (1982). The test assesses the ability of a test compound to inhibit the acylation of cholesterol by oleic acid by measuring the amount of radiolabeled cholesterol oleate formed from radiolabeled oleic acid in a tissue preparation containing rabbit intestinal microsomes.
The data appear in Table 1 where they are expressed in IC50 values; i.e., the concentration of test compound required to inhibit 50% […] of the enzyme.

[2] = test system: male Sprague-Dawley rats; assay: in vivo screen designated APCC: blood cholesterol in rats fed the PCC diet; details: blood cholesterol vs vehicle (CMC/Tween); dosed at 4 PM, PCC diet with 1% or 0.5% cholic acid overnight, sacrificed at 8 AM; dose not given
Excerpt: In one in vivo screen designated APCC. male Sprague-Dawley rats (200 to 225 g) were randomly divided into treatment groups and dosed at 4 PM with either vehicle (CMCTween) or suspensions of compounds in vehicle. The normal chow diet was then replaced with the PCC diet with either 1% or 0.5^00 cholic acid, as indicated. The rats consumed this diet ad libitum during the night and were sacrificed at 8 AM to obtain blood samples for cholesterol analysis using standard procedures. Statistical differences between mean cholesterol values for the same vehicle were determined using analysis of variance followed by Fisher's least significant test.

| SMILES | pIC50 [1] | % Change (mg/dl) [2] |
| --- | --- | --- |
| CC(C)c1cccc(C(C)C)c1NC(=O)NCC(NC(=O)c1ccccc1)c1ccccc1 (racemic) [Example 4, (±)-N-[2-[[[[2,6-bis(1-methylethyl)phenyl]amino]carbonyl]amino]-1-phenylethyl]benzenecarboxamide] | 6.28 | – |
| CC(C)c1cccc(C(C)C)c1NC(=O)NCC(NC(=O)CCCCCBr)c1ccccc1 (racemic) [Example 9, (±)-N-[2-[[[[2,6-bis(1-methylethy))phenyl]amino]carbonyl]amino]-1-phenylethyl]-6-bromohexanamide] | 6.42 | -36% |
| COCCCCCC(=O)NC(CNC(=O)Nc1c(C(C)C)cccc1C(C)C)c1ccccc1 (racemic) [Example 10, (±)-N-[2-[[[[2,6-bis(1-methylethyl)phenyl]amino]carbonyl]amino]-1-phenylethyl]-6-methoxyhexanamide] | 6.41 | – |
| CCCCCCCCCCCCNCC(CNC(=O)Nc1c(C(C)C)cccc1C(C)C)c1ccccc1 (racemic) [Example 11, (±)-N-[2,6-bis(1-methylethyl)phenyl]-N'-[3-dodecylamino-2-phenylpropyl]urea] | – | -54% |

Continued, in another order:

| pIC50 [1] | SMILES | % Change (mg/dl) [2] |
| --- | --- | --- |
| 7.29 | CC(C)c1cccc(C(C)C)c1NC(=O)NCC(NCc1ccccc1)c1ccccc1 (racemic) [Example 5, (±)-N-(2,6-bis(1-methylethyl)phenyl]-N'-[2-phenylmethylamino)-2-phenylethyl]urea] | -53% |
| 6.82 | CCCCCCC(=O)NC(CNC(=O)Nc1c(C(C)C)cccc1C(C)C)c1ccccc1 (racemic) [Example 7, (±)-N-[2-[[[[2,6-bis(1-methylethyl)phenyl]amino]carbonyl]amino]-1-phenylethyl]heptanamide] | – |
| 6.96 | CCCCCCCNC(CNC(=O)Nc1c(C(C)C)cccc1C(C)C)c1ccccc1 (racemic) [Example 8, (±)-N-[2,6-bis(1-methylethyl)phenyl]-N'-[2-heptylamino-2-phenylethyl]urea] | -25% |
| 7.10 | CC(C)c1cccc(C(C)C)c1NC(=O)NCC(NC(=O)c1ccccn1)c1ccccc1 (racemic) [Example 12, (±)-N-[2-[[[[2,6-bis(1-methylethyl)phenyl]amino]carbonyl]amino]-1-phenethyl-2-pyridinylarnide] | – |
